According to patent US7446199B2, “Compositions useful as inhibitors of protein kinases” (Vertex Pharmaceuticals Incorporated, priority 2003, dated 2008):

Columns and labels:
[1] = target: T1, Aurora-2 (Homo sapiens, UniProt O14965); assay: Inhibition of AUR-2, coupled enzyme assay; assay type: biochemical; conditions: 70 nM Aurora-2, 800 μM peptide LRRASLG, 30° C.
T1 construct: addition of 10 μL of Aurora-2 stock solution to give a final concentration of 70 nM
T1 sequence (O14965 1-403): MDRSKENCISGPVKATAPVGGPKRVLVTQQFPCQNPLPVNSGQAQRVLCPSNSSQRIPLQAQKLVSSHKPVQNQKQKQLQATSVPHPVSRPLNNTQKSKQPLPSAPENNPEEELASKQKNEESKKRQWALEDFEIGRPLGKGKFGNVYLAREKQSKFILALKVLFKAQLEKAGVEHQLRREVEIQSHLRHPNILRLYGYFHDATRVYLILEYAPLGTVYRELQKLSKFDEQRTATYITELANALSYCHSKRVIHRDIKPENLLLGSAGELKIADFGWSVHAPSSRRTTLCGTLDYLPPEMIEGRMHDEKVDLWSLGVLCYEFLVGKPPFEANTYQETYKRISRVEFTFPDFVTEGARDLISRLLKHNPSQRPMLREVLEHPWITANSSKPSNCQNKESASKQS
Method: Compounds are screened in the following manner for their ability to inhibit Aurora-2 using a standard coupled enzyme assay (Fox et al. (1998) Protein Sci 7, 2249). To an assay stock buffer solution containing 0.1M HEPES 7.5, 10 mM MgCl2, 1 mM DTT, 25 mM NaCl, 2.5 mM phosphoenolpyruvate, […], […], […], and 800 μM peptide (LRRASLG, American Peptide, Sunnyvale, Calif.) is added a DMSO solution of a compound of the present invention to a final concentration of 30 μM. The resulting mixture is incubated at 30° C. for 10 min. The reaction was initiated by the addition of 10 μL of Aurora-2 stock solution to give a final concentration of 70 nM in the assay. The rates of reaction are obtained by monitoring absorbance at 340 nm over a 5 minute read time at 30° C. using a BioRad Ultramark plate reader (Hercules, Calif.). The Ki values are determined from the rate data as a function of inhibitor concentration.

[2] = target: T2, TAK1A-TAB fusion protein (Homo sapiens, UniProt O43318); assay: TAK-1 inhibition assay, radiometric filter binding assay; assay type: biochemical; conditions: 50 μM ATP, 12 μM bovine myelin basic protein, 20 nM TAK1A-TAB fusion protein
T2 construct: using 20 nM TAK1A-TAB fusion protein
T2 sequence (O43318 with tags, fused parts or gaps isoform O43318-2 limits assumed): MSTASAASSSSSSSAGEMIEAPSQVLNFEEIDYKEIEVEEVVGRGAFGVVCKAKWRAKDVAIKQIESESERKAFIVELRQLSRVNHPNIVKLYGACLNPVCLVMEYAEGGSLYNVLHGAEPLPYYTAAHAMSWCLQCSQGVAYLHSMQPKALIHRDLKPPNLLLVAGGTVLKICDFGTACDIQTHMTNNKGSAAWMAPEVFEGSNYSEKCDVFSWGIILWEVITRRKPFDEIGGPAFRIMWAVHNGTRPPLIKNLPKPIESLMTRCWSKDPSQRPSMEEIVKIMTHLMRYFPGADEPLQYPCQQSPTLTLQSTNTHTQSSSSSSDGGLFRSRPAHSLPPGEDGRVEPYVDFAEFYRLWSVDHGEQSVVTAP
Method: Compounds were screened for their ability to inhibit TAK1A kinase activity using a radiometric filter binding assay. Reactions were carried out in a solution containing Buffer A (100 mM HEPES (pH 7.5), 10 mM MgCl2), 25 mM NaCl, 2 mM DTT, and 1.5% DMSO. Final substrate concentrations in the assay were 50 μM ATP (a mixture of unlabeled ATP (Sigma Chemicals, St Louis, Mo.) and ^33P-labeled ATP (PerkinElmer Life Sciences, Boston, Mass.) for a final specific activity of 50 Ci/mol), and 12 μM bovine myelin basic protein (MBP, Vertex Pharmaceuticals, Cambridge, Mass.). Reactions were carried out at ambient temperature (˜20° C.) using 20 nM TAK1A-TAB fusion protein. Under these conditions the extent of reaction is linear with time for a period of 2 hours.
A test compound of the present invention (1 μL in DMSO) was combined with ATP and Buffer A in a final volume of 47 μL in a 96 well plate. Typically, a 6 point titration was conducted by preparing serial dilutions (from 10 mM compound stocks) with DMSO of the test compounds of the present invention in daughter plates, for final concentrations spanning 0.046 μM to 3.73 μM. The reaction was initiated by the addition of 20 μl of an enzyme stock solution consisting of TAK1A-TAB fusion (described by Sugita, T. et al. in Biochem. Biophys. Res. Comm. 2002, 297, 1277-1281), MBP, Buffer A, NaCl, and DTT. The reaction was allowed to proceed for two hours at ambient temperature, then quenched with an equal volume of 10 mM unlabeled ATP in 10% trichloroacetic acid. A 110 μL aliquot of the quenched reaction was transferred to a Multiscreen PH filter plate (Millipore, Billerica, Mass.) and allowed to incubate at ambient temperature overnight (typically 16-20 hours). Following incubation the filter plates were washed with 3×150 μL aliquots of 5% trichloroacetic acid using a modified Biotek Elx405 plate washer. A 70 μL aliquot of Microscint 20 scintillation fluid (PerkinElmer) was added to each well, and the plate was then sealed and read on a TopCount NXT microplate scintillation counter (PerkinElmer). The Ki values were determined from the rate data as a function of inhibitor concentration.

SMILES | Ki [1] | Ki [2]
Oc1cnc2[nH]cc(-c3oncc3-c3cccc(Cl)c3Cl)c2c1 [Compound 48, 3-[4-(2,3-Dichloro-phenyl)-isoxazol-5-yl]-1H-pyrrolo[2,3-b]pyridin-5-ol] | 200 to 1000 nM | 200 to 1000 nM
COc1cnc2[nH]cc(-c3oncc3-c3cccc(Cl)c3Cl)c2c1 [Compound 49, 3-[4-(2,3-Dichloro-phenyl)-isoxazol-5-yl]-5-methoxy-1H-pyrrolo[2,3-b]pyridine] | < 200 nM | 200 to 1000 nM
Fc1cccc(-c2cnoc2-c2c[nH]c3ncc(-c4ccc(N5CCNCC5)cc4)cc23)c1F [Compound 68, 3-[4-(2,3-Difluoro-phenyl)-isoxazol-5-yl]-5-(4-piperazin-1-yl-phenyl)-1H-pyrrolo[2,3-b]pyridine] | < 200 nM | < 200 nM
CN1CCN(c2ccc(-c3cnc4[nH]cc(-c5oncc5-c5cccc(F)c5F)c4c3)cc2)CC1 [Compound 70, 3-[4-(2,3-Difluoro-phenyl)-isoxazol-5-yl]-5-[4-(4-methyl-piperazin-1-yl)-phenyl]-1H-pyrrolo[2,3-b]pyridine methanesulfonate] | < 200 nM | < 200 nM
CN1CCN(c2ccc(-c3cnc4[nH]cc(-c5oncc5-c5cccc(F)c5F)c4c3)cn2)CC1 [Compound 71, 3-[4-(2,3-Difluoro-phenyl)-isoxazol-5-yl]-5-[6-(4-methyl-piperazin-1-yl)-pyridin-3-yl]-1H-pyrrolo[2,3-b]pyridine] | < 200 nM | < 200 nM
CS(=O)(=O)Nc1ccc(-c2cnc3[nH]cc(-c4oncc4-c4cccc(F)c4F)c3c2)cc1 [Compound 98, N-(4-{3-[4-(2,3-Difluoro-phenyl)-isoxazol-5-yl]-1H-pyrrolo[2,3-b]pyridin-5-yl}-phenyl)-methane sulfonamide] | < 200 nM | 200 to 1000 nM
Clc1cccc(-c2cnoc2-c2c[nH]c3ncc(-c4cccnc4)cc23)c1Cl [Compound 99, 3-[4-(2,3-Dichloro-phenyl)-isoxazol-5-yl]-5-pyridin-3-yl-1H-pyrrolo[2,3-b]pyridine] | < 200 nM | 200 to 1000 nM
